Test results from patent US20020119917A1, “ANTI-INFLAMMATORY PEPTIDES DERIVED FROM C-REACTIVE PROTEIN” (priority 1996, published 2002).
Where two headings read alike, the source gives them in different places. Starred links: 1 amine or outer side, 2 acyl side, 3 side chain; linkers in the order of their positions; H or OH if unused. Non-standard residues stand in square brackets, D forms with d. Residues, ends and D or L forms follow the SMILES beside them. No end group written: not given here. *: point of attachment. Fmoc = O=C(OCC1c2ccccc2-c2ccccc21)*; NH(1-naphthyl) = c1ccc2c(N*)cccc2c1; MeOSuc = COC(=O)CCC(=O)*; Cbz = O=C(OCc1ccccc1)*; CO = O=C([*:1])[*:2]

How the values were obtained:
[1] = biological target: T1, human leukocyte elastase (hLE) (Homo sapiens, UniProt P08246); assay: In-vitro inhibition of hLE (cleavage of MeOSuc-AAPV-NA); type: biochemical
T1 construct: Neutrophils (1.4 billion) were isolated from whole blood obtained from a single healthy laboratory donor; from tissue; host or cells: neutrophils from whole blood of a single healthy donor
T1 sequence (P08246 30-247 limits assumed): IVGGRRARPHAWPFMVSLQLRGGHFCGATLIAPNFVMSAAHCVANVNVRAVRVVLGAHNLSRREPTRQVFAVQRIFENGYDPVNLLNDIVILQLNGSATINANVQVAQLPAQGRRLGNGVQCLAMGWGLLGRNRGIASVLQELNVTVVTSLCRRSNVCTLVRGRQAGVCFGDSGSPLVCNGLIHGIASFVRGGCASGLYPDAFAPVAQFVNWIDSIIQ
Description: (§1) The enzymatic activity was assayed with MeOSuc-AAPV-NA for hLE determination and Suc-AAPF-NA for hCG determination (both in 100 mM Hepes buffer, pH 7.4, containing 0.05% of the […] detergent Brij-35). The activities of the individual enzymatic fractions were 100% free from cross-contamination. […] The fractions containing hLE and hCG were dialyzed each against 0.1% pyridinium acetate, pH 5.3, divided into 20 aliquots, lyophilized, and stored at −20° C. until use.
Peptides were dissolved in 100 mM Hepes buffer pH 7.4 containing 0.1% Brij-35 with 10% DMSO to yield 600 μM solutions, which were used to make further dilutions with the same buffer, and 80 μL aliquots were added in duplicates to 96-well plates. The substrate, 600 or 900 μM MeOSuc-AAPV-NA in the same buffer with 5% DMSO, was added to each well in addition to the blank wells, and the plate was placed in the plate reader equilibrated to 37° C. (Dynateck MR-6000). Lyophilized aliquots of hLE were dissolved in 1600 μL of 100 mM Hepes buffer without DMSO, and 80 μL of the enzyme solution was added to the peptides and substrate to initiate the reaction. […] The final volume was 240 μL containing: 5% DMSO, 1-200 μM of peptide, 200 μM substrate, and 0.75 μg (about 25 picomol) enzyme.
For hLE, V is determined by fitting a linear equation to the first 6 time-points (10 min) of the kinetics data using the least squares method. […] From calculating the error in the slope of the equation, the relative error for Ki was deduced:
Ki={slope*(1+[S]/Km)}^−1 because Ki=[I]*{(1+[S]/Km)*(Vo/Vi−1)}^−1.
The hLE inhibitory capability of CRP-derived peptides was evaluated by inhibiting the enzymatic cleavage of MeOSuc-AAPV-NA as described in Materials and Methods (section v).

hLE [2] = biological target: T2, hLE (Homo sapiens, UniProt P08246); assay: Degradation profiles of peptides by RP-HPLC after incubation with hLE; type: in vitro ADME; conditions: incubated with hLE in PBS, 37° C., time-scale hours
T2 construct: Neutrophils (1.4 billion) were isolated from whole blood obtained from a single healthy laboratory donor; from tissue; host or cells: neutrophils from whole blood of a single healthy donor
T2 sequence (P08246 30-247 limits assumed): T1 sequence (P08246 30-247 limits assumed)
Description: Several active peptide inhibitors were dissolved in calcium- and magnesium-free phosphate-buffered saline (PBS), 125 μg/250 μL, mixed with 0.25 aliquots of hLE or hCG in 250 μL PBS and incubated at 37° C. Periodically (1,3,8, and 24 hour), 100 μL samples were removed from the reaction vessel. The samples were diluted with 150 μL of 0.1% TFA, frozen with liquid nitrogen, and stored at −20° C. prior to HPLC analysis.
More insight into the mechanism of inhibition is provided by HPLC time-course elution profiles of peptide 1, incubated with hLE in PBS (FIG. 2). […] The other bonds in peptide 1 are cleaved only after several days of incubation with the enzyme.

[3] = biological target: T3, human leukocyte cathepsin G (hCG) (Homo sapiens, UniProt P08311); assay: In-vitro inhibition of hCG (conversion of Suc-AAPF-NA); type: biochemical
T3 construct: Neutrophils (1.4 billion) were isolated from whole blood obtained from a single healthy laboratory donor; from tissue; host or cells: neutrophils from whole blood of a single healthy donor
T3 sequence (P08311 21-244 limits assumed): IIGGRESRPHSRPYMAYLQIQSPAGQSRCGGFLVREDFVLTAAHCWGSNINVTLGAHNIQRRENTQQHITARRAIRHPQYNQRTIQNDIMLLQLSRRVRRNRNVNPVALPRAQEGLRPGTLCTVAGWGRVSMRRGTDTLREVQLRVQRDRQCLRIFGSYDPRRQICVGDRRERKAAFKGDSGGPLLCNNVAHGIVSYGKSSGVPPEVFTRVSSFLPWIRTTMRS
Description: as §1
Similar conditions to hLE inhibition experiments ere used except the substrate: 80 μL of 1.8 mM Suc-AAPF-NA. The enzyme was issolved in 800 μL buffer, and the reaction was monitored every 6 min for 1 hour. The final volume was 240 μL containing: 5% DMSO, 1-500 μM peptide, 600 μM substrate, and 1.2 μg enzyme (about 40 picomol).
For hCG, V is determined by fitting a quadratic equation to the total kinetic data (60 min), using the least squares method and calculating V at t=0.
The inhibitory capability of several CRP-derived peptides was evaluated by inhibiting the enzymatic conversion of Suc-AAPF-NA (as described in Materials and Methods (vi) above).

hLE [4] = biological target: T4, hLE (Homo sapiens, UniProt P08246); conditions: CRP as a whole protein; cited from earlier work
T4 sequence (P08246 30-267): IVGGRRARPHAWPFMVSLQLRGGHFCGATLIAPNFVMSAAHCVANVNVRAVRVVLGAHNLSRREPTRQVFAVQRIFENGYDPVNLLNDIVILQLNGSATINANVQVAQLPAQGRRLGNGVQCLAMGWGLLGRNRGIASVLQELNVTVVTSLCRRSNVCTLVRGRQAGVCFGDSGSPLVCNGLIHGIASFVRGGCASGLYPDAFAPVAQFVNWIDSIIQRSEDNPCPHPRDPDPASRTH

[5] = system: specific receptors on human neutrophils; conditions: in vitro; cited from earlier work
[6] = biological target: specific receptors on monocytes; conditions: in vitro; cited from earlier work
[7] = substrate MeOSuc-AAPV-NA, 100 mM Hepes pH 7.4, 37° C., read-out: hLE Ki
[8] = substrate Suc-AAPF-NA, 600 μM, read-out: hCG Ki

Row | Compound | Ki [1] [µM] | Ki [3] [µM] | other results
1 | CC[C@H](C)[C@H](NC(=O)[C@@H](Cc1c[nH]cn1)NC(=O)[C@@H](NC(=O)[C@@H]1CCCN1C(=O)[C@H](C)NC(=O)[C@@H](NC(=O)[C@@H](NC(=O)[C@@H](N)C(C)C)[C@@H](C)O)C(C)C)C(C)C)C(=O)O [Peptide 6, Val89-Thr-Val-Ala-Pro-Val-(D)His-Ile96] (H-VTVAPV[dH]I-OH; N-terminus and C-terminus assumed) | 450 ± 45 |  | cleavage by hLE (HPLC time-course elution profile) (hLE [2]): No observable cleavage products
2 | CC[C@H](C)[C@H](NC(=O)[C@H](Cc1c[nH]cn1)NC(=O)[C@H](NC(=O)[C@@H]1CCCN1C(=O)[C@H](C)NC(=O)[C@@H](NC(=O)[C@@H](NC(=O)[C@@H](N)C(C)C)[C@@H](C)O)C(C)C)C(C)C)C(=O)O [Peptide 7, Val89-Thr-Val-Ala-Pro-(D)Val-His-Ile9] (H-VTVAP[dV]HI-OH; N-terminus and C-terminus assumed) | 330 ± 130 |  | cleavage by hLE (HPLC time-course elution profile) (hLE [2]): No observable cleavage products
3 | CC[C@H](C)[C@H](NC(=O)[C@@H](Cc1c[nH]cn1)NC(=O)[C@H](NC(=O)[C@@H]1CCCN1C(=O)[C@H](C)NC(=O)[C@@H](NC(=O)[C@@H](NC(=O)[C@@H](N)C(C)C)[C@@H](C)O)C(C)C)C(C)C)C(=O)O [Peptide 8, Val89-Thr-Val-Ala-Pro-(D)Val-(D)His-Ile96] (H-VTVAP[dV][dH]I-OH; N-terminus and C-terminus assumed) | 490 ± 50 |  | cleavage by hLE (HPLC time-course elution profile) (hLE [2]): No observable cleavage products
4 | CC[C@H](C)[C@H](NC(=O)[C@H](Cc1c[nH]cn1)NC(=O)[C@@H](NC(=O)[C@@H]1CCCN1C(=O)[C@H](C)NC(=O)[C@@H](NC(=O)[C@@H](NC(=O)[C@@H](NC(=O)[C@H](Cc1ccccc1)NC(=O)CCC(=O)OC)C(C)C)[C@@H](C)O)C(C)C)C(C)C)C(=O)O [Peptide 16, MeOSuc-Phe-Val89-Thr-Val-Ala-Pro-Val-His-Ile96] (MeOSuc-FVTVAPVHI-OH) | 100 ± 10 | 100 ± 200 | 
5 | CC[C@H](C)[C@H](NC(=O)[C@H](Cc1c[nH]cn1)NC(=O)[C@@H](NC(=O)[C@@H]1CCCN1C(=O)[C@H](C)NC(=O)[C@@H](NC(=O)[C@@H](NC(=O)[C@@H](NC(=O)Nc1cccc2ccccc12)C(C)C)[C@@H](C)O)C(C)C)C(C)C)C(=O)O [Peptide 18, Naphtyl-NH-CO-Val89-Thr-Val-Ala-Pro-Val-His-Ile96] ({NH(1-naphthyl)-CO}-VTVAPVHI-OH) | 240 ± 35 | 300 ± 40 | 
6 | CC[C@H](C)[C@H](NC(=O)[C@H](Cc1c[nH]cn1)NC(=O)[C@@H](NC(=O)[C@@H]1CCCN1C(=O)[C@H](C)NC(=O)[C@@H](NC(=O)[C@@H](NC(=O)[C@@H](NC(=O)[C@H](Cc1ccccc1)NC(=O)OCc1ccccc1)C(C)C)[C@@H](C)O)C(C)C)C(C)C)C(=O)O [Peptide 21, CBz-Phe-Val89-Thr-Val-Ala-Pro-Val-His-Ile96] (Cbz-FVTVAPVHI-OH) | 380 ± 115 | 430 ± 60 | 
7 | CC[C@H](C)[C@H](NC(=O)[C@H](Cc1c[nH]cn1)NC(=O)[C@@H](NC(=O)[C@@H]1CCCN1C(=O)[C@H](C)NC(=O)[C@@H](NC(=O)[C@@H](NC(=O)[C@@H](NC(=O)OCC1c2ccccc2-c2ccccc21)C(C)C)[C@@H](C)O)C(C)C)C(C)C)C(=O)O [Peptide 23, Fmoc-Val89-Thr-Val-Ala-Pro-Val-His-Ile96] (Fmoc-VTVAPVHI-OH) | 1000 ± 100 | 280 ± 30 | 
8 | CRP: plasma protein, major acute phase reactant; five identical sub-units of 206 amino acids forming a cyclic pentamer |  |  | inhibitory effect on hLE (hLE [4]): no inhibitory effect; Kd [5]: ~0.05 µM; Kd [6]: ~0.1 µM
9 | DIGYSFTVGGSEILFEVPEVTVAPVHICT [Peptide 3c] | 4 | 22 ± 3 | 
10 | GSEILFEVPEVTVAPVHI [Peptide 2, Gly79-Ser-Glu-Ile-Leu-Phe-Glu-Val-Pro-Glu-Val-Thr-Val-Ala-Pro-Val-His-Ile96] | 50 ± 5 | 1200 ± 200 | 
11 | H-VTVAPVHI-OH [Peptide 1, Val89-Thr-Val-Ala-Pro-Val-His-Ile96] | 120 ± 15 | 1400 ± 200 | hCG inhibitory capability (in words) [3]: slightly inhibitory; cleavage by hLE (HPLC time-course elution profile) (hLE [2]): cleaved as predicted exclusively at the Val-His bond
12 | SFTVGGSEILFEVPEVTVAPVHI [Peptide 3] | 27 ± 3 | 500 ± 100 | 
13 | SFTVGGSEILFEVPEVTVAPVHICT [Peptide 3a] | 20 ± 3 | 180 ± 30 | 
14 | SFTVGGSEILFEVPEVTVAPVHICTSWESA [Peptide 3b] | 22 ± 4 | 200 ± 30 | 
15 | VTVAPFHIP-NH2 [Peptide 13, Val89-Thr-Val-Ala-Pro-Phe-His-Ile96-Pro-NH2] |  |  | Ki [1, 7]: 180 ± 30 µM; Ki [3, 8]: 900 ± 200 µM
16 | VTVAPVFI [Peptide 10, Val89-Thr-Val-Ala-Pro-Val-Phe-Ile96] |  |  | Ki [1, 7]: 110 ± 25 µM; Ki [3, 8]: 1 ± 0.2 µM
